The results in this text go back to patent publication US8778929B2, “Substituted heteroaryl inhibitors of B-RAF” (Boehringer Ingelheim International GmbH, priority 2008, dated 2014).

The target of the first experiment is B-Raf (V600E)-kinase (Homo sapiens, UniProt P15056, V600E). Briefly: Kinase test B-Raf (V600E). Conditions: compound concentration 2 μM; 100% = no inhibition, 0% = total inhibition; read-out: % CTL (residual activity of the enzyme relative to DMSO control). Format: biochemical. As to the method: In a dilution series 10 μL of test substance solution are placed in a multiwell plate. The dilution series is selected so that generally a range of concentrations of 2 μM to 0.119 nM or 0.017 nM is covered. If necessary the initial concentration of 2 μM is changed to 50 μM, 10 μM or 0.4 μM or 0.2857 μM and further dilution is carried out accordingly. The final concentration of DMSO is 5%. 10 μL of the B-Raf (V600E)-kinase solution are pipetted in (containing 0.5 ng B-Raf (V600E)-kinase in 20 mM Tris-HCl pH 7.5, 0.1 mM EDTA, 0.1 mM EGTA, 0.286 mM sodium orthovanadate, 10% glycerol, 1 mg/mL bovine serum albumin, 1 mM dithiothreitol) and the mixture is incubated for 1 h at RT under with shaking The kinase reaction is started by the addition of 20 μL ATP solution [final concentration: 250 μM ATP, 30 mM Tris-HCl pH 7.5, 0.02% Brij, 0.2 mM sodium orthovanadate, 10 mM magnesium acetate, 0.1 mM EGTA, phosphatase cocktail (Sigma, # P2850, dilution recommended by the manufacturer), 0.1 mM EGTA] and 10 μL MEK1 solution [containing 50 ng biotinylated MEK1 (prepared from purified MEK1 according to standard procedure, e.g. with EZ-Link Sulpho-NHS-LC-Biotin reagent, Pierce, # 21335) and carried out for 60 min at RT with constant shaking. The reaction is stopped by the addition of 12 μL of a 100 mM EDTA solution and incubation is continued for a further 5 min. 55 μL of the reaction solution are transferred into a streptavidin-coated plate (e.g. Streptawell HighBond, Roche, #11989685001) and shaken gently for 1 h at RT, in order to bind biotinylated MEK1 to the plate. After elimination of the liquid the plate is washed five times with 200 μL of 1×PBS and 100 μL solution of primary antibody plus europium-labelled secondary antibody [Anti Phospho-MEK (Ser217/221), Cell Signaling, # 9121 and Eu-N1 labeled goat-anti-rabbit antibody, Perkin Elmer, #AD0105], the primary antibody is diluted 1:2000 and the secondary antibody is diluted to 0.4-0.5 μg/mL in Delfia Assay Buffer (Perkin Elmer, #1244-111). After 1 h shaking at RT the solution is poured away and washed five times with 200 μL Delfia Wash Buffer (Perkin Elmer, #4010-0010/#1244-114). After the addition of 200 μL Enhancement Solution (Perkin Elmer, #4001-0010/#1244-105) the mixture is shaken for 10 min at RT and then measured in a Wallac Victor using the program “Delfia Time Resolved Fluorescence (Europium)”. IC50 values are obtained from these dosage-activity curves using a software program (GraphPadPrizm).
Chain of B-Raf (V600E)-kinase (P15056 whole entry V600E): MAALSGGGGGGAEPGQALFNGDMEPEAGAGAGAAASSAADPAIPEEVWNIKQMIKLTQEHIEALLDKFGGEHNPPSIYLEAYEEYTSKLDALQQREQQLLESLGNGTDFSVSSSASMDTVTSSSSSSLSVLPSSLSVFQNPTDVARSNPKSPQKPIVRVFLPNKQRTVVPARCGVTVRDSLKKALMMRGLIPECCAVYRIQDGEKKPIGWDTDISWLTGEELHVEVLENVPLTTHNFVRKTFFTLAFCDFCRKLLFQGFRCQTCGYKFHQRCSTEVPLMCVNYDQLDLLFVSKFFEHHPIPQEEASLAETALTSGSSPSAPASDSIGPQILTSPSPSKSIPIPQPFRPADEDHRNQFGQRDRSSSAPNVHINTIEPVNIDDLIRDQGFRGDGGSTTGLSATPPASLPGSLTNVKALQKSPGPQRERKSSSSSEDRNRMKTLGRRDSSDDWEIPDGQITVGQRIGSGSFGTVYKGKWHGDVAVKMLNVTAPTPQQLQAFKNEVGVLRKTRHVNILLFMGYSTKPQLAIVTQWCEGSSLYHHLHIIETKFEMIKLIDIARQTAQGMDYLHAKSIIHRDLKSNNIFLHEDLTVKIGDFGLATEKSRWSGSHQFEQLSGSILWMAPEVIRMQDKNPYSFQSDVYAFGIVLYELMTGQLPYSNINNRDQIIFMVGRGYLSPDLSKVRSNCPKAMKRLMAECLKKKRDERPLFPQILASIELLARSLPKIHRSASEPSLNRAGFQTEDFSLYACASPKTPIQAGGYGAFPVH
A value of 100% indicates no inhibition while a value of 0% indicates total inhibition. The % CTL values denote the residual activity of the enzyme after the addition of the inhibitory compound in the solvent DMSO in relation to the enzyme activity in the solvent DMSO without the addition of a compound (control). The values were determined using the B-Raf(V600E)-kinase test described above.
As for `Cc1ncc(C(=O)Nc2cc(OC(F)(F)F)cc(N3CCN(C)CC3)c2)cc1-n1cc(-c2cncs2)nn1` [Example I-51], the remaining activity at 2 µM was determined as 4%.

`Cc1ncc(C(=O)Nc2cc(CN(C)C)c(Cl)c(C(F)(F)F)c2)cc1-n1cc(-c2cnn(C)c2C)nn1` [Example I-52]: the remaining activity at 2 µM came out at 1.6%.

Take `Cc1ncc(C(=O)Nc2cc(CN3CCCC3)c(Cl)c(C(F)(F)F)c2)cc1-n1cc(-c2cnn(C)c2C)nn1` [Example I-53]: the remaining activity at 2 µM came to 1.4%.

In the case of `Cc1ncc(C(=O)Nc2cc(CNC(C)C)c(Cl)c(C(F)(F)F)c2)cc1-n1cc(-c2cnn(C)c2C)nn1` [Example I-54], the remaining activity at 2 µM is 1.2%.

Take `Cc1ncc(C(=O)Nc2cc(CNCC(C)C)c(Cl)c(C(F)(F)F)c2)cc1-n1cc(-c2cnn(C)c2C)nn1` [Example I-55]: the remaining activity at 2 µM was 1.2%.

With `Cc1ncc(C(=O)Nc2cc(Br)c(C)c(C(F)(F)F)c2)cc1-n1cc(-c2cnn(C)c2C)nn1` [Example I-56], the remaining activity at 2 µM worked out at 1.4%.

In the case of `CCN1CCN(c2cc(NC(=O)c3cnc(C)c(-n4cc(-c5cnn(C)c5C)nn4)c3)cc(C(F)(F)F)c2C)CC1` [Example I-57], the remaining activity at 2 µM was determined as 2.3%.

For the molecule `Cc1ncc(C(=O)Nc2cc(N3CCN(C(C)C)CC3)cc(C(F)(F)F)c2)cc1-n1cc(-c2cnn(C)c2C)nn1` [Example I-58], the remaining activity at 2 µM was found to be 5.5%.

As for `CCN1CCN(c2cc(NC(=O)c3cnc(C)c(-n4cc(-c5cnn(C)c5C)nn4)c3)cc(C(F)(F)F)c2)CC1` [Example I-59], the remaining activity at 2 µM stood at 13.4%.

`Cc1ncc(C(=O)Nc2cc(N(C)CCN(C)C)cc(C(F)(F)F)c2)cc1-n1cc(-c2cnn(C)c2C)nn1` [Example I-60]: the remaining activity at 2 µM is 7.2%.

Consider `Cc1ncc(C(=O)Nc2cc(N3CCOCC3)c(C)c(C(F)(F)F)c2)cc1-n1cc(-c2cnn(C)c2C)nn1` [Example I-61], for which the remaining activity at 2 µM stood at 8.1%.

Consider `Cc1ncc(C(=O)Nc2cc(Br)cc(C(F)(F)F)c2)cc1-n1cc(-c2cnn(C)c2C)nn1` [Example I-62], for which the remaining activity at 2 µM stood at 2.8%.

As to `Cc1ncc(C(=O)Nc2cc(N3CC[C@H](N(C)C)C3)c(C)c(C(F)(F)F)c2)cc1-n1cc(-c2cnn(C)c2C)nn1` [Example I-63], the remaining activity at 2 µM was 4.6%.

For `COc1ccc(NC(=O)c2cnc(C)c(-n3cc(-c4cncnc4)nn3)c2)cc1C(F)(F)F` [Example I-64], the remaining activity at 2 µM was determined as 6.6%.

On to `Cc1ncc(C(=O)Nc2cc(N3CC[C@@H](N(C)C)C3)c(C)c(C(F)(F)F)c2)cc1-n1cc(-c2cnn(C)c2C)nn1` [Example I-65], for which the remaining activity at 2 µM was found to be 7.1%.

Take `Cc1ncc(C(=O)Nc2cc(N3CCCCC3)c(C)c(C(F)(F)F)c2)cc1-n1cc(-c2cnn(C)c2C)nn1` [Example I-66]: the remaining activity at 2 µM turned out to be 6.4%.

In the case of `Cc1ncc(C(=O)Nc2cc(N3CCN(C)CC3)c(C)c(C(F)(F)F)c2)cc1-n1cc(-c2cncnc2)nn1` [Example I-67], the remaining activity at 2 µM is 2.9%.

`CCNc1cc(NC(=O)c2cnc(C)c(-n3cc(-c4cnn(C)c4C)nn3)c2)cc(C(F)(F)F)c1C` [Example I-68]: the remaining activity at 2 µM turned out to be 4.7%.

Take `Cc1ncc(C(=O)Nc2cc(N3CCOCC3)cc(C(F)(F)F)c2)cc1-n1cc(-c2cnn(C)c2C)nn1` [Example I-69]: the remaining activity at 2 µM came out at 2.8%.

In the case of `Cc1ncc(C(=O)Nc2cc(N(C)CCN(C)C)c(C)c(C(F)(F)F)c2)cc1-n1cc(-c2cnn(C)c2C)nn1` [Example I-71], the remaining activity at 2 µM stood at 5.5%.

With `Cc1ncc(C(=O)Nc2cc(CN3CCCC3)cc(C(F)(F)F)c2)cc1-n1cc(-c2cncnc2)nn1` [Example I-72], the remaining activity at 2 µM was determined as 5.1%.

On to `CCN(CC)c1cc(NC(=O)c2cnc(C)c(-n3cc(-c4cnn(C)c4C)nn3)c2)cc(C(F)(F)F)c1` [Example I-73], for which the remaining activity at 2 µM amounted to 1.7%.

For `Cc1ncc(C(=O)Nc2cc(N3CCCCC3)cc(C(F)(F)F)c2)cc1-n1cc(-c2cnn(C)c2C)nn1` [Example I-74], the remaining activity at 2 µM amounted to 9%.

As for `CCNc1cc(NC(=O)c2cnc(C)c(-n3cc(-c4cnn(C)c4C)nn3)c2)cc(C(F)(F)F)c1` [Example I-75], the remaining activity at 2 µM was 7.3%.

For `Cc1ncc(C(=O)Nc2cc(N3CC[C@H](N(C)C)C3)cc(C(F)(F)F)c2)cc1-n1cc(-c2cnn(C)c2C)nn1` [Example I-77], the remaining activity at 2 µM turned out to be 1.9%.

Consider `Cc1ncc(C(=O)Nc2cc(NCCN(C)C)cc(C(F)(F)F)c2)cc1-n1cc(-c2cnn(C)c2C)nn1` [Example I-78], for which the remaining activity at 2 µM amounted to 2.8%.

As for `Cc1cn(-c2cc(NC(=O)c3cnc(C)c(-n4cc(-c5cncnc5)nn4)c3)cc(C(F)(F)F)c2)cn1` [Example I-79], the remaining activity at 2 µM was found to be 3.6%.

On to `Cc1ncc(C(=O)Nc2cc(C(C)(C)C)on2)cc1-n1cc(-c2cccnc2)nn1` [Example I-80], for which the remaining activity at 2 µM stood at 1.9%.

In the case of `Cc1ncc(C(=O)Nc2cc(C(F)(F)F)ccn2)cc1-n1cc(-c2cncs2)nn1` [Example I-81], the remaining activity at 2 µM amounted to 1.2%.

In the case of `Cc1ncc(C(=O)Nc2cc(C(C)(C)C)on2)cc1-n1cc(-c2cncs2)nn1` [Example I-82], the remaining activity at 2 µM is 1.6%.

Take `Cc1ncc(C(=O)Nc2cc(C(C)(C)C)n[nH]2)cc1-n1cc(-c2cncs2)nn1` [Example I-83]: the remaining activity at 2 µM was found to be 1.1%.

As to `COc1cncc(-c2cn(-c3cc(C(=O)Nc4cc(C(C)(C)C)n[nH]4)cnc3C)nn2)c1` [Example I-84], the remaining activity at 2 µM is 2.4%.

For `COc1cncc(-c2cn(-c3cc(C(=O)Nc4cc(OC(F)(F)F)cc(N5CCN(C)CC5)c4)cnc3C)nn2)c1` [Example I-85], the remaining activity at 2 µM is 1.1%.

On to `Cc1ncc(C(=O)Nc2cc(C3CCN(C)CC3)cc(C(F)(F)F)c2)cc1-n1cc(-c2cnn(C)c2C)nn1` [Example I-86], for which the remaining activity at 2 µM was 1.4%.

`Cc1ncc(C(=O)Nc2cc(C3=CCN(C)CC3)cc(C(F)(F)F)c2)cc1-n1cc(-c2cnn(C)c2C)nn1` [Example I-87]: the remaining activity at 2 µM turned out to be 1.7%.

Turning to `Cc1ncc(C(=O)Nc2cc(C3=CCNCC3)cc(C(F)(F)F)c2)cc1-n1cc(-c2cnn(C)c2C)nn1` [Example I-88], the remaining activity at 2 µM came out at 1.3%.

For `COc1ccc(NC(=O)c2cnc(C)c(-n3cc(-c4cncs4)nn3)c2)cc1C(F)(F)F` [Example I-89], the remaining activity at 2 µM worked out at 1.5%.

For the molecule `COc1cncc(-c2cn(-c3cc(C(=O)Nc4cc(CN5CCCC5)c(Cl)c(C(F)(F)F)c4)cnc3C)nn2)c1` [Example I-90], the remaining activity at 2 µM worked out at 2.1%.

Take `COc1cncc(-c2cn(-c3cc(C(=O)Nc4cc(CN5CCCC5)cc(C(F)(F)F)c4)cnc3C)nn2)c1` [Example I-91]: the remaining activity at 2 µM amounted to 2.5%.

In the case of `COc1cncc(-c2cn(-c3cc(C(=O)Nc4ccc(OC)c(C(F)(F)F)c4)cnc3C)nn2)c1` [Example I-92], the remaining activity at 2 µM was found to be 2.5%.

With `Cc1ncc(C(=O)Nc2cc(CN(C)C)c(C)c(C(F)(F)F)c2)cc1-n1cc(-c2cnn(C)c2C)nn1` [Example I-93], the remaining activity at 2 µM is 3.5%.

Turning to `COCCN(C)Cc1cc(NC(=O)c2cnc(C)c(-n3cc(-c4cnn(C)c4C)nn3)c2)cc(C(F)(F)F)c1C` [Example I-94], the remaining activity at 2 µM is 3.5%.

For the molecule `COc1c(CNCC(C)C)cc(NC(=O)c2cnc(C)c(-n3cc(-c4cnn(C)c4C)nn3)c2)cc1C(F)(F)F` [Example I-95], the remaining activity at 2 µM was 3.1%.

As to `COCCN(C)Cc1cc(NC(=O)c2cnc(C)c(-n3cc(-c4cnn(C)c4C)nn3)c2)cc(C(F)(F)F)c1OC` [Example I-96], the remaining activity at 2 µM amounted to 3.4%.

`CCN1CC=C(c2cc(NC(=O)c3cnc(C)c(-n4cc(-c5cnn(C)c5C)nn4)c3)cc(C(F)(F)F)c2C)CC1` [Example I-97]: the remaining activity at 2 µM was 3.3%.

Staying with this experiment, now noted: measurement at 1.43 μM (***); 100% = no inhibition, 0% = total inhibition; read-out: % CTL (residual activity of the enzyme relative to DMSO control).
In the case of `Cc1ncc(C(=O)Nc2cc(N3CC[C@@H](N(C)C)C3)cc(C(F)(F)F)c2)cc1-n1cc(-c2cnn(C)c2C)nn1` [Example I-76], the remaining activity at 1.43 µM was determined as 2%.
